These are literature values, as cited in US20210137919A1, “PHARMACEUTICAL FORMULATIONS, METHOD FOR PRODUCING A PHARMACEUTICAL FORMULATION, AND MEDICAMENT COMPRISING SAME” (SmaWa GmbH, priority 2018, published 2021).

As to `CN1CC(=O)N2[C@H](c3ccc4c(c3)OCO4)c3[nH]c4ccccc4c3C[C@@H]2C1=O` [tadalafil], the solubility in water was 2 to 3.2 µg/mL.
